Laboratory results: ChEMBL document CHEMBL3243992, “Synthesis and carcinogenic activity of 5-fluoro-7-(oxygenated methyl)-12-methylvenz[a]anthracenes” (J Med Chem, 1978)

How the values were obtained:
Rattus norvegicus [1] = test: Carcinogenic activity in Sprague-Dawley rat assessed as tumor induction time at 0.1 umol, sc three times a week for 30 days; type: ADME, organism-based; conditions: in vivo, 720 h
Rattus norvegicus [2] = test: Carcinogenic activity in Sprague-Dawley rat assessed as tumor formation at 0.1 umol, sc three times a week for 30 days observed up to 270 days; type: ADME, organism-based; conditions: in vivo

SMILES	Time (Rattus norvegicus [1]) [days]	Activity (Rattus norvegicus [2])
CC(=O)OCc1c2ccccc2c(C)c2c1cc(F)c1ccccc12	205.7	
Cc1c2ccccc2c(CO)c2cc(F)c3ccccc3c12		Non-toxic
Cc1c2ccccc2c(C)c2c1cc(F)c1ccccc12	231	
